Tests used:
[1] = Fluorimetric pH titration of the sensor molecules in aqueous buffers; format: physicochemical; conditions: for λem / λex / pK / pKa: aqueous buffers; for λem / λex / pK: around 10 μmol/L; for S = F/F0: fluorescent response to the pH changes; for pK: fluorimetric pH titration
Description: Example 201. Fluorimetric pH titration. The study of the fluorescent response of the sensor molecules to changes in pH was performed in solution in aqueous buffers (in concentrations around 10 μmol/L).
The resulting curve has a pronounced maximum at pH 7.2 (FIG. 2).

[2] = tested on: HeLa cells; test: Staining of endocytic recycling compartment using transferrin conjugated with pH sensing dye; format: cell-based; conditions: transferrin conjugate 20 ug/mL, 45 minutes, 37 C, FIG. 3
Description: Staining of endocytic recycling compartment using transferrin conjugated with pH sensing dye (compound 129). HeLa (ATCC) cells were plated in a 96 well microplate at 10,000 cells per well in McCoy 5A media with 5% FBS and 4 uM deferoxamine (Sigma). Cells were grown overnight and then rinsed 2 times in DMEM with-out phenol red plus 0.5% FBS. Transferrin conjugates were applied in same media at 20 ug/mL for 45 minutes at 37 C. Cells were then rinsed 1 time with DMEM and imaged on a Zeiss 200M inverted fluorescence microscope using a 40× objective, TRITC filters, a CoolSnap HQ (Photometrics) ccd camera, and Metamorph (Universal Imaging Corp.) acquisition software.

[3] = tested on: white blood cells (granualcytes); test: Assay of phagocytic activity in whole blood using bioparticles labeled with pH sensing dyes; format: cell-based
Description: Assay of phagocytic activity using bioparticles labeled with pH sensing dyes. A whole blood sample was collected in a sodium heparin tube. Aliquots of whole blood (100 uL) were combined with labeled E. coli (20 uL of 10 mg/mL) in 12×75 mm flow cytometry Falcon tube, and the samples were incubated in a 37° C. water bath for 15 minutes. A negative control was put on ice. After incubation, the tubes were placed in a rack and the red blood cells were lysed with 1 mL of an ammonium chloride lysis solution (0.187 M NH4Cl, 10 mM KHCO3, 0.095 mM EDTA) for 10 minutes at room temperature. The samples were centrifuged at 1200 rcf for 5 minutes, the supernatants were removed, and the cell pellets were resuspended in HBSS buffer. The resuspended cells were put into a 96 well microplate, 100 uL per well, and the plate was spun to settle the cells to the bottom of the wells. Imaging was done on a Zeiss 200M inverted fluorescence microscope using a 40× objective, TRITC filters, a CoolSnap HQ (Photometrics) ccd camera, and Metamorph (Universal Imaging Corp.) acquisition software. […] This would give an overestimation of phagocytic activity in a plate reader experiment, unless other steps were taken such as including a quencher dye.

[4] = Fluorescence response of ratiometric dextran conjugates versus pH; format: physicochemical; conditions: 50 mM phosphate buffers
[5] = Fluorescent pH response of transferrin conjugates labeled with pH sensing dyes; format: physicochemical; conditions: transferrin conjugate of the labeling sensor
Description: Labeling of transferrin with pH sensing dyes. All materials are from Invitrogen unless otherwise stated. Dissolve transferrin from human serum (Sigma, T4132) in 0.1 M NaHCO3, pH 8.3, to a concentration of 10 mg/mL. Make a 10 mg/mL solution of the succinimidyl ester of the dye in dry DMSO and sonicate briefly to aid in dissolution of the dye. Add a 10 to 30-fold molar excess of the reactive dye solution to the transferrin solution dropwise while stirring. Note that the volume of dye added depends on the specific dye and the amount of transferrin to be labeled. Protect the reaction vessel from light and stir for ˜1 hour at RT. Purify the conjugate on a P-30M gel filtration column (BioRad, 150-4150) in PBS, pH 7.2. Centrifuge the conjugate at 19,000 rpm for 20 minutes to remove aggregates, if present. Determine the degree of labeling by measuring A560 nm/A280 nm.

[6] = tested on: neurons; test: Detection of neuronal cells in mixed neuron/astroglial culture; format: cell-based, rat
Description: Astroglial feeder layers were established for one week in culture on glass bottomed culture dishes, 35 mm diameter, coated with Poly-L-Lysine. Neurons from embryonic day 18 rat hippocampi were dissociated in culture medium, and seeded onto the feeder layers at a density of 25-35,000 cells per milliliter, two milliliters per dish, and allowed to grow in neuronal culture medium plus mitotic inhibitors to prevent glial proliferation.
Cells were pre-stained for 15 minutes with 200 ng/mL Hoercsht to visualize DNA in the nuclei, and 50 ng/mL calcien AM ester to visualize cytoplasm by adding 1000×DMSO stocks of these compounds to the cells in complete medium, then returning them to the cell culture incubator for fifteen minutes at 37 degrees Celsius. Cells were removed, and the medium gently poured off. The cells were immediately placed in 5 uM Compound 129, diluted from a 1 mM DMSO stock into normal saline plus 20 mM HEPES and 20 mM glucose, final pH set to 7.4 with NaOH. The cells were incubated in labeling solution for ten minutes at room temperature, and then gently washed twice with saline (above) minus dye for imaging.

[7] = pH titration of labeled E. coli bioparticles; format: physicochemical; conditions: dye labeled E. coli bioparticles 0.2 mg/mL, 50 mM potassium phosphate buffer, pH 1 to 10, FIG. 4
Description: Example 303: Labeling E. Coli bioparticles for use in assays of phagocytosis. Escherichia coli Strain K12, lyophilized cells (Sigma, EC1-5G) were resuspended in PBS at 20 mg/mL and vortexed vigorously and sonicated for several minutes. The suspensions were divided into 100 uL aliquots spun down at 10,000×g for 2 minutes, supernatants removed and resuspended in 100 uL of PBS. This was done twice to clean up the E. coli. The amine reactive SE versions of the novel pH dyes were made up in DMSO at concentration of 10 mM. For labeling, 100 uL of the E. coli suspension was combined with 100 uL of the dye stock solution, so 2 mg of E. coli was labeled with 1 umole of dye. The labeling was carried out at 37 C for 45 minutes followed by the same spin down and resuspension procedure as described above 5 times to remove free dye. The final resuspension was 10 mg/mL. pH Titration of labeled E. Coli. The fluorescence of the labeled E. coli was measured at a range of pH values in 50 mM potassium phosphate buffer, from pH 1 to 10, using a Flexstation II (Molecular Devices) plate reader. The conjugates were diluted 1:50 into the potassium phosphate buffers, so the final concentration of the labeled bioparticles was 0.2 mg/mL.

[8] = Quantum yield determination relative to pH-insensitive standard 180; format: physicochemical
Description: Example 202. Quantum yield determination. Quantum yields at pH=2.0 and pH=10.0 were determined for the compounds 178 and 179 relative to the pH-insensitive standard 180 by comparing integrated absorption and emission spectral curves.
Compounds 178 and 179 were prepared by treatment of the corresponding succinimidyl esters 111 and 129 with methoxyethylamine. The reference standard 180 was obtained in the reaction of commercial succinimidyl 5-carboxy-tetramethylpdodamine (TAMRA-5-SE) with the same amine.

λem [1] [nm] | λex [1] [nm] | S = F/F0 [1] | pK [1] | Compound | further results
611 | 586 | 53 | 5.0 | CCOC(=O)CCCN(CC)c1cc(OC)c(C2=c3cc4c5c(c3Oc3c2cc2c6c3CCCN6CCC2)CCC[N+]=5CCC4)cc1OC [Compound 155] | 
424 | 349 | 270 | 5.4 | CCOC(=O)CCCN(CC)c1cc(OC)c(-c2cc3ccc(C(=O)OC)cc3[nH]2)cc1OC [Compound 157] | 
611 | 587 | 88 | 7.2 | CCOC(=O)CCCN(CC)c1cc(OC)c(C2=c3cc4c5c(c3Oc3c2cc2c6c3CCCN6CCC2)CCC[N+]=5CCC4)cc1N(C)C [Compound 162] | 
517 | 490 | 200 | 7.2 | CN(C)C=Nc1ccc(-c2c3ccc(=O)cc-3oc3cc(O)ccc23)c(C(=O)O)c1 [Compound 173] | pH of the maximum of the titration curve ([1]; FIG. 2): 7.2; pKa ([1]; FIG. 2, read-out: pKa, drop in fluorescence (amidine titration curve)): ~8; pKa ([1]; pKa, increase in fluorescence (fluorescein titration curve), FIG. 2): ~5.5
576 | 550 | 10 | 7.7 | CN(C)C=Nc1ccc(-c2c3ccc(=[N+](C)C)cc-3oc3cc(N(C)C)ccc23)c(C(=O)O)c1 [Compound 175] | 

Further lines, the compound ahead of its results:

Compound | λem [1] [nm] | λex [1] [nm] | S = F/F0 [1] | pK [1] | further results
CCN(CCCC(=O)OC)c1cc(OC)c(-c2c3ccc(N(C)C)cc3[o+]c3cc(N(C)C)ccc23)cc1N(C)C [Compound 127, Methyl 4-((2-dimethylamino)-5-methoxyphenyl-4-tetramethylrhodaminyl)(ethyl)amino) butanoate] | 587 | 561 | 130 | 7.3 | fluorescence upon protonation (titration curve) ([1]; FIG. 1): significant increase in fluorescence upon protonation
CCN(CCCC(=O)ON1C(=O)CCC1=O)c1cc(OC)c(-c2c3ccc(N(C)C)cc3[o+]c3cc(N(C)C)ccc23)cc1N(C)C [Compound 129, Succinimidyl 4-((2-Dimethylamino)-5-methoxyphenyl-4-tetramethylrhodaminyl)(ethyl)amino) butanoate] |  |  |  |  | staining pattern [2]: characteristic perinuclear staining pattern of the endocytic recycling compartment; fluorescence of cells by flow cytometry ([3]; E. coli labeled with the dye, relative to unlabeled E. coli and iced negative control, FIG. 5): increase in fluorescence; staining seen by fluorescence microscopy ([3]; labeled E. coli, whole blood, 37° C., 15 minutes, FIG. 6): bright vesicular staining of the phagosomes filled with the engulfed E. coli within the cells; fluorescence in the red channel versus pH ([4]; 10,000 MW dextran conjugate with rhodamine green, 0.1 mg/mL, ex 540, em 600, FIG. 10A): fluorescence does change with pH; fluorescence in the red channel versus pH ([4]; dextran conjugate with rhodamine green at a higher degree of label than Compound 129, 0.1 mg/mL, ex 540, em 600, FIG. 9A): fluorescence does change with pH; pKa [5]: 4.2; uptake by glial cells shown by acidification of the preparation [6]: had in fact taken up; labeling of neurons relative to astrocytes ([6]; 5 uM, ten minutes, room temperature, pH 7.4, TRITC channel): appear bright over the dimly labeled astrocytes; fluorescence intensity versus pH [7]: large increase in fluorescence at acidic pHs
CCN(CCCC(=O)NCCCCCC(=O)ON1C(=O)CCC1=O)c1cc(OC)c(-c2c3ccc(=[N+](C)C)cc-3oc3cc(N(C)C)ccc23)cc1N(C)C [Compound 139] | 588 | 556 | 80 | 5.6 | S = F/F0 [5]: 15
CCN(CCCC(=O)NCCCCCN)c1cc(OC)c(-c2c3ccc(=[N+](C)C)cc-3oc3cc(N(C)C)ccc23)cc1N(C)C [Compound 141] | 588 | 560 | 65 | 7.4 | 
CCN(CC)c1cc2occ(-c3ncc(C(=O)O)o3)c2cc1OC [Compound 152] | 393 | 325 |  |  | 
CCN(CCCC(=O)NCCOC)c1cc(OC)c(-c2c3ccc(=[N+](C)C)cc-3oc3cc(N(C)C)ccc23)cc1OC [Compound 178] |  |  |  |  | pKa ([8]; aqueous buffers, Table 4): 4.6; QE (pH = 2.0) ([8]; relative quantum yield, pH = 2.0, relative to standard 180): 0.78; QE (pH = 10.0) ([8]; relative quantum yield, pH = 10.0, relative to standard 180): 0.008
CCN(CCCC(=O)ON1C(=O)CCC1=O)c1cc(O)c(-c2c3ccc(=[N+](C)C)cc-3oc3cc(N(C)C)ccc23)cc1OC.[Cl-] [Compound 189, N-(6-(dimethylamino)-9-(4-((4-(2,5-dioxopyrrolidin-1-yloxy)-4-oxobutyl)(ethyl)amino)-2-hydroxy-5-methoxyphenyl)-3H-xanthen-3-ylidene)-N-methylmethanaminium chloride] |  |  |  |  | fluorescence intensity versus pH [7]: large increase in fluorescence at acidic pHs
Ethyl 4-((2-dimethylamino)-5-methoxyphenyl-4-tetramethylrhodaminyl)(ethyl)amino) butanoate [Compound 133] | 587 | 561 | 180 | 7.3 | 

Reference: patent US11867698B2, “Fluorogenic pH sensitive dyes and their method of use” (Life Technologies Corporation, priority 2006, dated 2024)
